According to US8802674B2, “Aminopyrimidine derivatives as LRRK2 modulators” (Genentech, Inc., priority 2011, dated 2014):

These molecules were tested against LRRK2 (Homo sapiens (Human), UniProt Q5S007, G2019S) (assay: In Vitro LRRK2 LabChip Assay). Conditions: Table 4.
Assay type: biochemical
Procedure, shortened: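 Potency (Ki in μM, IC50 or % inhibition) derived from capillary-electrophoresis separation of phospho- and unphosphorylated fluorescent peptide, with Ki fitted by a tight-binding model.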

LRRK2, sequence (Q5S007 970-2527 G2019S limits assumed): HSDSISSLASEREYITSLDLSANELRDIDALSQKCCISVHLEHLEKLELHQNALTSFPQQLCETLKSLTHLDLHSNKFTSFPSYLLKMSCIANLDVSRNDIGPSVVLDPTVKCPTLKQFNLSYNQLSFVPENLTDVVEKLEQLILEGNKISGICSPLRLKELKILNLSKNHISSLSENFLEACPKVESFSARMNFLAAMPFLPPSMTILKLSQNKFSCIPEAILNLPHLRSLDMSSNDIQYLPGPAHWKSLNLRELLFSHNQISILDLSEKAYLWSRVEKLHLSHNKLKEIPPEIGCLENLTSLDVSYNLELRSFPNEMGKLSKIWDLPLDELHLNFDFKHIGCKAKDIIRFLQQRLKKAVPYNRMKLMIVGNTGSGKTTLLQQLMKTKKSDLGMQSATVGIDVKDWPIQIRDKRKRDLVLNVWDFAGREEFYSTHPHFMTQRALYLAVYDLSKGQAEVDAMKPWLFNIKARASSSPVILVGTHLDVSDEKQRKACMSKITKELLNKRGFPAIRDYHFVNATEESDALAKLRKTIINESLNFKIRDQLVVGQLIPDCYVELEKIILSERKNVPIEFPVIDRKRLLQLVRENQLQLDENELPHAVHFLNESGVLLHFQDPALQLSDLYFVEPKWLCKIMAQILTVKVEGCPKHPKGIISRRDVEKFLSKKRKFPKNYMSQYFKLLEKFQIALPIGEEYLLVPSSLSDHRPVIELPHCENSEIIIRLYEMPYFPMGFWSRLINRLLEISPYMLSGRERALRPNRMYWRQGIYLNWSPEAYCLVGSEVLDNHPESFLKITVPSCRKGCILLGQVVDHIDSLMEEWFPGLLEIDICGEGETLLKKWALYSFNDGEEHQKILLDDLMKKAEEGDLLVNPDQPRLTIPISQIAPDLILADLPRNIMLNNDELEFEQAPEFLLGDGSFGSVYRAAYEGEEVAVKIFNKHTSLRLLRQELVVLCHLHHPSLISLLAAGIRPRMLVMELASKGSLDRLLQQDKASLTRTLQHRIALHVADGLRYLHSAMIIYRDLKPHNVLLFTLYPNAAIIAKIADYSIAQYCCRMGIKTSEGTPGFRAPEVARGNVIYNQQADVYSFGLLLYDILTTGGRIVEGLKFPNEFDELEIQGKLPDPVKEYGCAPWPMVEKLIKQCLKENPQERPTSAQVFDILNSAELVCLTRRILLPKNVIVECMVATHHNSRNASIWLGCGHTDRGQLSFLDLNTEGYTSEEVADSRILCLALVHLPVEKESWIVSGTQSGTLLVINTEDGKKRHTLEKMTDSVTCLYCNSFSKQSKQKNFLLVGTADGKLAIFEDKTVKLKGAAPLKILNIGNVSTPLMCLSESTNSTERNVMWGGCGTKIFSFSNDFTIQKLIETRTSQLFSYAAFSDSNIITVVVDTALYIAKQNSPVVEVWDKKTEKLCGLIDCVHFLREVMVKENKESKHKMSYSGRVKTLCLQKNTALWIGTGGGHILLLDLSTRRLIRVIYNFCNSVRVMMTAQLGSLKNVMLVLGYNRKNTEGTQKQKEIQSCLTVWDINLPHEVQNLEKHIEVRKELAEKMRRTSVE

| SMILES | Ki |
| --- | --- |
| CCC1(CC)CN(C(=O)c2ccc(Nc3ncc(Cl)c(NC)n3)c(OC)c2)CCO1 [Example 39, [4-(5-Chloro-4-methylamino-pyrimidin-2-ylamino)-3-methoxy-phenyl]-(2,2-diethyl-morpholin-4-yl)-methanone] | 5.5 nM |
| CNc1nc(Nc2ccc(C(=O)N3CCOCC3)cc2OC2CC2)ncc1Cl [Example 217, [4-(5-Chloro-4-methylamino-pyrimidin-2-ylamino)-3-cyclopropoxy-phenyl]-morpholin-4-yl-methanone] | 2 nM |
| CNc1nc(Nc2cc(OC)c(C(=O)N3CCOCC3)cc2F)ncc1C(F)(F)F [Example 237, (5-fluoro-2-methoxy-4-(4-(methylamino)-5-(trifluoromethyl)pyrimidin-2-ylamino)phenyl) (morpholino)methanone] | 4.8 nM |
| CNc1nc(Nc2ccc(C(=O)N3CCNCC3)cc2OC)ncc1Cl [Example 47, [4-(5-Chloro-4-methylamino-pyrimidin-2-ylamino)-3-methoxy-phenyl]-piperazin-1-yl-methanone] | 2.8 nM |
| COc1cc(C(=O)N2CCOCC2)ccc1Nc1ncc(I)c(OC)n1 [Example 101, [4-(5-Iodo-4-methoxy-pyrimidin-2-ylamino)-3-methoxy-phenyl]-morpholin-4-yl-methanone] | 2.1 nM |
| [2H]C1([2H])OCCN(C(=O)c2ccc(Nc3ncc(Br)c(OC)n3)c(OC)c2)[C@@H]1C [Example 107, [4-(5-Bromo-4-methoxy-pyrimidin-2-ylamino)-3-methoxy-phenyl]-((R)-2,2-di-deutero-3-methyl-morpholin-4-yl)-methanone] | 2 nM |
| CNc1nc(Nc2ccc(C(=O)N3CC4CCC(C3)O4)cc2OC)ncc1Cl [Example 63, [4-(5-Chloro-4-methylamino-pyrimidin-2-ylamino)-3-methoxy-phenyl]-(8-oxa-3-aza-bicyclo[3.2.1]oct-3-yl)-methanone] | 2 nM |
| CNc1nc(Nc2cc(OC)c(C(=O)N3CCC(N(C)C)CC3)cc2Cl)ncc1Cl [Example 151, [5-Chloro-4-(5-chloro-4-methylamino-pyrimidin-2-ylamino)-2-methoxy-phenyl]-(4-dimethylamino-piperidin-1-yl)-methanone] | 2.8 nM |
| CNc1nc(Nc2ccc(C(=O)N3CCOCC3)cc2OC(F)F)ncc1Cl [Example 7, [4-(5-Chloro-4-methylamino-pyrimidin-2-ylamino)-3-difluoromethoxy-phenyl]-morpholin-4-yl-methanone] | 4.9 nM |
| CNC(=O)c1cc(OC)c(Nc2ncc(C(F)(F)F)c(NC)n2)cc1F [Example 180, 2-Fluoro-5-methoxy-N-methyl-4-(4-methylamino-5-trifluoromethyl-pyrimidin-2-ylamino)-benzamide] | 4.7 nM |
| CNc1nc(Nc2ccc(C(=O)N3CC4(COC4)C3)cc2OC)ncc1Cl [Example 190, [4-(5-Chloro-4-methylamino-pyrimidin-2-ylamino)-3-methoxy-phenyl]-(2-oxa-6-aza-spiro[3.3]hept-6-yl)-methanone] | 6.3 nM |
| CNc1nc(Nc2ccc(C(=O)N3CCCCC3)cc2OC)ncc1C#N [Example 204, 2-[2-Methoxy-4-(piperidine-1-carbonyl)-phenylamino]-4-methylamino-pyrimidine-5-carbonitrile] | 3.3 nM |
| COc1cc(C(=O)N2CCOCC2)ccc1Nc1ncc(C2CC2)c(OC)n1 [Example 182, (4-(5-cyclopropyl-4-methoxypyrimidin-2-ylamino)-3-methoxyphenyl) (morpholino) methanone] | 89.5 nM |
| CNc1nc(Nc2ccc(CC(=O)N3CCOCC3)cc2OC)ncc1C(F)(F)F [Example 223, 2-[3-Methoxy-4-(4-methylamino-5-trifluoromethyl-pyrimidin-2-ylamino)-phenyl]-1-morpholin-4-yl-ethanone] | 5.2 nM |
| CNc1nc(Nc2ccc(C(=O)NC3CC(F)(F)C3)cc2OC)ncc1C#N [Example 194, 4-(5-Cyano-4-methylamino-pyrimidin-2-ylamino)-N-(3,3-difluoro-cyclobutyl)-3-methoxy-benzamide] | 6.5 nM |
| CNc1nc(Nc2cc(OC)c(CC(=O)N3CCOCC3)cc2OC)ncc1Cl [Example 221, 2-[4-(5-Chloro-4-methylamino-pyrimidin-2-ylamino)-2,5-dimethoxy-phenyl] 1-morpholin-4-yl-ethanone] | 8.7 nM |
| CCN(C(=O)c1ccc(Nc2ncc(C#N)c(NC)n2)c(OC)c1)C(C)C [Example 207, 4-(5-Cyano-4-methylamino-pyrimidin-2-ylamino)-N-ethyl-N-isopropyl-3-methoxy-benzamide] | 5.4 nM |
| COCCNc1nc(Nc2ccc(C(=O)N3CCOCC3)cc2OC)ncc1Cl [Example 105, {4-[5-Chloro-4-(2-methoxy-ethylamino)-pyrimidin-2-ylamino]-3-methoxy-phenyl}-morpholin-4-yl-methanone] | 9.4 nM |
| COCCNc1nc(Nc2ccc(C(=O)N3CCOCC3)cc2OCC(F)(F)F)ncc1Cl [Example 109, [4-[5-Chloro-4-(2-methoxy-ethylamino)-pyrimidin-2-ylamino]-3-(2,2,2-trifluoro-ethoxy)-phenyl]-morpholin-4-yl-methanone] | 9.6 nM |

Same assay, conditions: Table 5

| SMILES | Ki |
| --- | --- |
| COc1cc(C(=O)N2CCOCC2)ccc1Nc1ncc(C(F)(F)F)c(OC)n1 [Example 263, [3-Methoxy-4-(4-methoxy-5-trifluoromethyl-pyrimidin-2-ylamino)-phenyl]-morpholin-4-yl-methanone] | 20 nM |

Same assay, conditions: Table 6

| SMILES | Ki |
| --- | --- |
| CNc1nc(Nc2ccc(C(=O)N3CCN(CC(F)(F)F)CC3)cc2OC)ncc1C(F)(F)F [Example 279, [3-Methoxy-4-(4-methylamino-5-trifluoromethyl-pyrimidin-2-ylamino)-phenyl]-[4-(2,2,2-trifluoro-ethyl)-piperazin-1-yl]-methanone] | 2 nM |
| CNc1nc(Nc2ccc(C(=O)N3CCOCC3)cc2OC2CCC2)ncc1C(F)(F)F [Example 269, [3-Cyclobutoxy-4-(4-methylamino-5-trifluoromethyl-pyrimidin-2-ylamino)-phenyl]-morpholin-4-yl-methanone] | 2.5 nM |
| CNc1nc(Nc2ccc(C(=O)N3CCOCC3)c(F)c2OC)ncc1C(F)(F)F [Example 297, [2-Fluoro-3-methoxy-4-(4-methylamino-5-trifluoromethyl-pyrimidin-2-ylamino)-phenyl]-morpholin-4-yl-methanone] | 14.5 nM |
| CNc1nc(Nc2ccc(C(=O)N3CCOCC3)cc2Cl)ncc1C(F)(F)F [Example 291, [3-Chloro-4-(4-methylamino-5-trifluoromethyl-pyrimidin-2-ylamino)-phenyl]-morpholin-4-yl-methanone] | 17 nM |

Same assay, conditions: Table 7

| SMILES | Ki |
| --- | --- |
| CCNc1nc(Nc2cc(F)c(C(=O)N3CCOCC3)cc2OC)ncc1C#N [Example 316, 4-Ethylamino-2-[5-fluoro-2-methoxy-4-(morpholine-4-carbonyl)-phenylamino]-pyrimdine-5-carbonitrile] | 6.5 nM |
